According to PMC11123841, “Discovery and Synthesis of Hydroxy-L-Proline Blockers of the Neutral Amino Acid Transporters SLC1A4 (ASCT1) and SLC1A5 (ASCT2)” (Molecules, 2024):

What was measured:
SLC1A4 = test system: SLC1A4; parameters: method as in PMID 14502423; details: cited from earlier work
SLC1A5 = biological target: T1, SLC1A5 (Mus musculus, UniProt P51912); assay: [3H]L-Gln radiolabeled uptake competition in oocytes; type: cell-based
T1 construct: expressed in transfected cells; host or cells: Xenopus laevis oocytes (cRNA injection)
T1 sequence (P51912 1-553): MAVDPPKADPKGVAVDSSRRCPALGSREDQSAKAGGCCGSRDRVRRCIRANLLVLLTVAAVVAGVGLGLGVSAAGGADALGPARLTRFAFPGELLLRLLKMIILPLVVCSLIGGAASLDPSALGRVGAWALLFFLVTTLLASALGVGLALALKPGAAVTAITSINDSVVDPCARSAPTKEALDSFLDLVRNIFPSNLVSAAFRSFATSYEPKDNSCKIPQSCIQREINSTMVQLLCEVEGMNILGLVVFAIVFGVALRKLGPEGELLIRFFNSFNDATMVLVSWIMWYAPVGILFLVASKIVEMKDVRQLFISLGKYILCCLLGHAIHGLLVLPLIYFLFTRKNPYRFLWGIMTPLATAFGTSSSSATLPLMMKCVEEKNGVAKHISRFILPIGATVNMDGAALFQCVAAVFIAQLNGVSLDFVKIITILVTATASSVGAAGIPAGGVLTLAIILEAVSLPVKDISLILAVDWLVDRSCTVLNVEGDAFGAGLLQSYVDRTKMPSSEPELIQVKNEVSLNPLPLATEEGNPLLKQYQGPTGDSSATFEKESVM
Method: (§1) Uptake was halted by washing 3 times with 4 °C ND96 buffer. Oocytes were then lysed in 0.1% Triton X-100, and radioactivity was counted via liquid scintillation. Dose response curves were generated by fitting fractional inhibition (I) to the expression I = Imax × [inhibitor]/([inhibitor] + IC50).
(A) SLC1A4 dose response curves for substrate activated anion currents using two-electrode voltage clamp of Xenopus lavies oocytes (−30 mV). […] (B) SLC1A5 dose response curve for substrate activated anion currents using two-electrode voltage clamp (−30 mV). […] Extracellular solutions contained 50 mM NaSCN.

SLC1A1 (EAAT3) = biological target: T2, SLC1A1 (EAAT3) (Homo sapiens, UniProt P43005); assay: TEVC in oocytes expressing glutamate transporter; type: cell-based; details: SLC1A1; applied at 1 mM
T2 construct: expressed in transfected cells; host or cells: Xenopus laevis oocytes (cRNA injection)
T2 sequence (P43005 1-524): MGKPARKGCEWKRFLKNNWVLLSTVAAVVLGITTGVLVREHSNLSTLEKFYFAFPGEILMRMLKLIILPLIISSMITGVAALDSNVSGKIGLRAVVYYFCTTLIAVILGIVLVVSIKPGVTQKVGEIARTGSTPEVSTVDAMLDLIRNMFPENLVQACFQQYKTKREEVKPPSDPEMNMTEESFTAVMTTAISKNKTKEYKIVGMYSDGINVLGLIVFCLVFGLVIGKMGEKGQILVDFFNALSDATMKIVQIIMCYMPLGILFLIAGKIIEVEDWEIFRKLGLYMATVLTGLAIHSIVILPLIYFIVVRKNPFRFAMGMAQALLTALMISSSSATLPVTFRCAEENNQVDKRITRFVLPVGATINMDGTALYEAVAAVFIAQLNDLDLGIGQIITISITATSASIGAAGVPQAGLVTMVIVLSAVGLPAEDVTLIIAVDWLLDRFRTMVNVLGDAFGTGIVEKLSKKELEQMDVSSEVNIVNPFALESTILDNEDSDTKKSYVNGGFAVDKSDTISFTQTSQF
Method: (§2) Additionally, 4-HP applied at 1 mM was used to assess activity at the glutamate transporters SLC1A3 or SLC1A1.
(§3) BPOHP activity was evaluated against the glutamate transporters paralogs within the SLC1A gene family (SLC1A 1–3) as well as at neutral amino acid transporters that share common ligand substrates with the SLC1 family including SLC38A1,2, and 4 (ATA1, ATA2, ATA3) and heteromeric transporters SLC7A10+SLC3A2 (asc-1/4f2).
as §1
(§4) Two-electrode voltage clamp (TEVC) transporter currents were recorded with a GeneClamp 500 amplifier and Digidata 1320A analog–digital interface (Molecular Devices, San Jose, CA, USA). Electrodes (0.2–1.0 MΩ) were filled with 3M KCl and the recording chamber was grounded with an agar bridge. Data were acquired with Axograph (v1.7.6) and LabChart (v7) and analyzed with Kaleidagraph software (v4.1) (Synergy, Reading, PA, USA). Uncoupled anion currents associated with the transport of substrate and block of SLC1A4 or SLC1A5 mediated leak conductance were recorded in the presence of Ringer with 50% substitution of NaCl by NaSCN to amplify the non-transported anion conductance.
(§5) Figure SM-2 TEVC from oocytes expressing SLC1A1-3 transporters.
(§6) (1 picture or pasted object on this page, not shown here)

SLC1A3 (EAAT1) = biological target: T3, SLC1A3 (EAAT1) (Homo sapiens, UniProt P43003); assay: TEVC in oocytes expressing glutamate transporter; type: cell-based; details: SLC1A3; applied at 1 mM
T3 construct: expressed in transfected cells; host or cells: Xenopus laevis oocytes (cRNA injection)
Method: as §2, §3, §1, §4, §5, §6

SLC38A2 (ATA2) = biological target: T4, SLC38A2 (ATA2) (Homo sapiens, UniProt Q96QD8); assay: TEVC electrogenic coupled currents in oocytes; type: cell-based; details: induced currents
T4 construct: expressed in transfected cells; host or cells: Xenopus laevis oocytes (cRNA injection)
T4 sequence (Q96QD8 1-506): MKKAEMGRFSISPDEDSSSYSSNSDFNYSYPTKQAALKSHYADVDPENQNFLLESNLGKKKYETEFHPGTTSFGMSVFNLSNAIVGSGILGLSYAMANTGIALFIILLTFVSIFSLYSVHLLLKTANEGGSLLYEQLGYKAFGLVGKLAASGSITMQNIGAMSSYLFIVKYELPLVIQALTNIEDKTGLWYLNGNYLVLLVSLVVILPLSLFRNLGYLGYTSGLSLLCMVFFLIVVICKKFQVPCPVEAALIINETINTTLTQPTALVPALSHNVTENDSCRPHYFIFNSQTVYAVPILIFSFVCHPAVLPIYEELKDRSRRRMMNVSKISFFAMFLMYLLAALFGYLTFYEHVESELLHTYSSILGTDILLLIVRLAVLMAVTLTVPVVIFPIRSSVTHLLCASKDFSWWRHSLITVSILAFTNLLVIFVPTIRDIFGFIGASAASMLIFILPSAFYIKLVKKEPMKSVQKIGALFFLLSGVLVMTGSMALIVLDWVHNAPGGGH
Method: as §2, §3, §1
as §4, with “Electrodes (0.2–1.0 MΩ) were filled with 3M KCl and the recording chamber was grounded with an agar bridge.” left out, “conductance. […]” for “conductance.”

T3 sequence (P43003 whole entry): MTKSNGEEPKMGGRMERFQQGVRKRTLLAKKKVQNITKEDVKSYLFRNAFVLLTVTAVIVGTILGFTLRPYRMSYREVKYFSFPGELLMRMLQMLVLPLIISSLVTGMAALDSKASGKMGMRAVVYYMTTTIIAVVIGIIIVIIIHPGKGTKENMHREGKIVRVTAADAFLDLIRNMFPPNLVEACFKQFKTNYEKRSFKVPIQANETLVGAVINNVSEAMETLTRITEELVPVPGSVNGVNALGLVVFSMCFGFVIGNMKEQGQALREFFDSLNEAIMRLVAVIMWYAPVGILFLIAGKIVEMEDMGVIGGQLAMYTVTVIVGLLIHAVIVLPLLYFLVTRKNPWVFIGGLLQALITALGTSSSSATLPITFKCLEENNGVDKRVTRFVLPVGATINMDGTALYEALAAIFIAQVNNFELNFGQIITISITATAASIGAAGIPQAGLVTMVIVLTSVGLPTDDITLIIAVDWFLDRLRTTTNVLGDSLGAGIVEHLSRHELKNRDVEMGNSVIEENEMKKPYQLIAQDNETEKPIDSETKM

Compound: O=C(O)[C@@H]1C[C@@H](O)CN1 [4-HP, trans-4-hydroxy-L-proline, reference compound]
- increase in affinity for SLC1A4 over L-proline (SLC1A4): approximately 20 fold
- IC50 (SLC1A5): 108 µM
- TEVC current response or block (SLC1A1 (EAAT3)): No TEVC current response or block was observed
- TEVC current response or block (SLC1A3 (EAAT1)): No TEVC current response or block was observed
- Km (SLC38A2 (ATA2)): 3.1 mM
